Measured values published in patent US20080248486A1, “Type Pept1 Protein Assay” (Iongate Biosciences GmbH, priority 2004, published 2008).

How the values were obtained:
[1] = tested on: peptide transporter; settings: Meredith et al. 1998; cited from earlier work
[2] = target: T1, PepT1 (Homo sapiens, UniProt P46059); test: Activity measurement with glibenclamide on protein-loaded sensor chip (SurfE2R system), current amplitude on change from non-activating to activating solution; type: biochemical; design: expressed in transfected cells; host or cells: CHO cells (plasma membrane preparation); settings: 100 μM glibenclamide in both activating and non-activating solution; CHO plasma membrane preparation on sensor chip; FIG. 1
T1 sequence (P46059 1-708): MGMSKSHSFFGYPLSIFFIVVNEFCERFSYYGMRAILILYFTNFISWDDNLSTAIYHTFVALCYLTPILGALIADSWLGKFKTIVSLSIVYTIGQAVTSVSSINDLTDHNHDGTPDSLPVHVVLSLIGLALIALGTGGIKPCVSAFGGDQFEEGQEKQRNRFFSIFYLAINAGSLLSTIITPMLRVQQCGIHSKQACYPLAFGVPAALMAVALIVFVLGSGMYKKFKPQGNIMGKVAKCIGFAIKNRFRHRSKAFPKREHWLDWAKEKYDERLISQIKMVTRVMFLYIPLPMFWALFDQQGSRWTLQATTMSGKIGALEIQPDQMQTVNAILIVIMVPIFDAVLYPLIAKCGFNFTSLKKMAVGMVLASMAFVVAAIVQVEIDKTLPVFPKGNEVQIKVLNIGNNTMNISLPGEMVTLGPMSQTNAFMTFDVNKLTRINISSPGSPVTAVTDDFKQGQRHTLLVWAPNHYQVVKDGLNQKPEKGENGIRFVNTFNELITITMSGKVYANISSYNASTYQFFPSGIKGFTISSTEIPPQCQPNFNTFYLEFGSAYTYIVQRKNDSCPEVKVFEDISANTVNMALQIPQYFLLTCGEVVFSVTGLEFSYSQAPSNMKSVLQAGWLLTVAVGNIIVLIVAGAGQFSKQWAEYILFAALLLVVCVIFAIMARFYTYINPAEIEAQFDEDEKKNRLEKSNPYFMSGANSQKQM
Experimental: The measurements were carried out as above, although both solutions contained activating and non-activating solution and additionally 100 μM glibenclamide.

[3] = target: T1, PepT1; design: host or cells: oocytes; settings: oocytes; cited from earlier work
[4] = Solubility of glibenclamide; type: physicochemical

| Compound | Affinity to the transporter [1] | Effect on current amplitude (PepT1 transport current I(t)) [2] | IC50 [3] [µM] | Solubility [4] |
| --- | --- | --- | --- | --- |
| NCc1ccc(C(=O)O)cc1 [4-aminomethyl benzoic acid] | only a slight affinity | – | – | – |
| COc1ccc(Cl)cc1C(=O)NCCc1ccc(S(=O)(=O)NC(=O)NC2CCCCC2)cc1 [glibenclamide] | – | inhibition of the current amplitude | ~100 | poor solubility |
